Experimental data published in paper PMC7645381, “Development and application of a high-throughput screening assay for identification of small molecule inhibitors of the P. falciparum reticulocyte binding-like homologue 5 protein” (International Journal for Parasitology: Drugs and Drug …, 2020).
Several values for one entry are separate records, joined by “and”; a condition that tells them apart may be missing. Equal values may be shown once. Read-outs that look alike come from different tables or passages of the source.

Key:
[1] = test system: P. falciparum 3D7 parasites; experiment: P. falciparum parasite viability assay (LDH); type: cell-based
Method: A modified version of the lactate dehydrogenase (LDH) assay described by [Gamo et al. […] Compounds were pre-dispensed in 384-well plates, RPMI/Albumax growth media was added, and P. falciparum inoculated. Plates were incubated for 72 h and then frozen at −80 °C overnight. LDH activity was quantified with the modified cofactor 3-acetylpyridine adenine dinucleotide (APAD) (Sigma Aldrich) by measuring absorbance of the tetrazolium indicator nitro blue tetrazolium (NBT) (Sigma Aldrich) at 650 nm. Parasite conditions: […] Growth inhibition assay: […] Intermediate compound dilution plates were prepared by dispensing 5 μL from each well of the compound master plate into 11.5 μL of RPMI/Albumax growth media. Duplicate assay plates (384-well) were then prepared by dispensing 0.5 μL of compound from the intermediate dilution plates into 9.5 μL of RPMI/Albumax growth media. […] The final DMSO concentration was 0.1% (to limit toxicity to parasites). […] Evaluation of parasite growth measuring lactate dehydrogenase (LDH) activity: After 72 h of incubation, plates were frozen at −80 °C overnight and then thawed at room temperature for at least 4 h. […] Plates were shaken to ensure mixing and absorbance at 650 nm was monitored using a PerkinElmer Envision plate reader after 30 min of incubation at room temperature. Data were normalised to percent growth inhibition using positive and negative controls and analyzed using TIBCO Spotfire software.

[2] = biological target: P. falciparum Rh5 (Rh5 – basigin interaction) (Plasmodium falciparum, UniProt Q8IFM5); experiment: biochemical; type: binding; conditions: for Rh5 inhibitory activity in the AlphaScreen assay: highest concentration tested 50 μM
P. falciparum Rh5 (Rh5 – basigin interaction), sequence (Q8IFM5 24-526): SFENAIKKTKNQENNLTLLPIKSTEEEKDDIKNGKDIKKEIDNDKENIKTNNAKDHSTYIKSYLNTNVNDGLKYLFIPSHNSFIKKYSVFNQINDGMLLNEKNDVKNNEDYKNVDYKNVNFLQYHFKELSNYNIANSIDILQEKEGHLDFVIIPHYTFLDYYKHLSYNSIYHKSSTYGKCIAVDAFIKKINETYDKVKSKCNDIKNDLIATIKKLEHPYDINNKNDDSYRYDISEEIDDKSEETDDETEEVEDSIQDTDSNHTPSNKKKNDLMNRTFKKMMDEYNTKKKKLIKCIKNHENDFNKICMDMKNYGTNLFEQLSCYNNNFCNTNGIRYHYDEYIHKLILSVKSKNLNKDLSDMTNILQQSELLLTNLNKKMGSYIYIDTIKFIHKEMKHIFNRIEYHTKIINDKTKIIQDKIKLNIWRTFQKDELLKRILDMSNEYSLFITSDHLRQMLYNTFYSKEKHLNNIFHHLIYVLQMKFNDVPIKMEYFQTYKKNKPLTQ

[3] = test system: P. falciparum D10; experiment: P. falciparum D10 growth inhibition by flow cytometry; type: cell-based; conditions: for EC50: Plasmodium falciparum, D10, growth inhibition by flow cytometry, 12-point dilution series, 72 h
Method: Pranlukast and selected analogues were then evaluated in a P. falciparum parasite viability assay. For this assay, we followed the procedure described by [Gamo et al. (2010)], that used lactate dehydrogenase (LDH) as a readout for parasite viability. In this assay, 3D7 parasites were incubated over 72 h in the presence of increasing concentrations of compounds. […]. For a comparison, selected compounds were incubated in the presence of P. falciparum D10 parasites for 72 h (Table 1, Fig. S14) and growth inhibition measured by flow cytometry. […].

[4] = test system: HepG2 cells; experiment: HepG2 growth inhibition assay; type: cell-based; conditions: Homo sapiens, 10-point dilution series, 48 h, Cell Titre-Glo
Method: HepG2 cells were cultured in Dulbeccos modified eagle's medium (DMEM) supplemented with 10% fetal calf serum (FCS), in a humidified incubator at 37 °C and 5% CO2. Ten-point compound titration assays were performed by treating cells (1 × 10^3) for 48 h in 384 well tissue culture treated plates (Greiner). Cytotoxicity was determined using Cell Titer Glo (Promega) and calculated as a percentage using DMSO as a positive growth control and 10 μM Bortezomib as a negative growth control. EC50 values were calculated using a 4-parameter log dose, non-linear regression analysis, with sigmoidal dose response (variable slope) curve fit using Graph Pad Prism (version 6.05). 0 and 100 constraint parameters were used for curve fitting. […]

[5] = test system: D10-PfPHG parasites; experiment: Schizont rupture assay; type: cell-based, P. falciparum
Method: D10-PfPHG parasites ([Wilson et al., 2010]) were cultured in human O^+ erythrocytes in RPMI-HEPES culture medium (pH 7.4, 50 μg/mL hypoxanthine, 25 mM NaHCO3, 20 μg/mL gentamicin, 0.5% Albumax II (Thermo Fisher Scientific) according to established protocols ([Trager and Jensen, 1976]) and maintained in an atmosphere of 1% O2, 4% CO2 and 95% N2. For assessment of merozoite invasion after schizont rupture, parasites were tightly synchronised to a 4 h window of invasion using heparin ([Boyle et al., 2010]; [Wilson et al., 2015]) and then grown for a further 42 h. Drug treatments were setup at 2–3% parasitaemia and 1% haematocrit in 50 μL volumes with a 1 in 10 dilution of drug added when parasites were 44–48 h post invasion. After 6 h of drug treatment and immediately after invasion was expected to finish, the assays were treated with 5 μg/mL ethidium bromide (EtBr, Bio-Rad) for 5 min prior to flow cytometry assessment of parasitaemia using a Becton Dickinson Accuri. Gating of newly invaded rings, free merozoites and unruptured late stages was achieved as per published methods ([Wilson et al., 2013]).
To determine if the modest activity of pranlukast and analogues in the parasite viability assay was a consequence of invasion inhibition, rather than inhibition at another stage of blood stage parasite development, we performed an assay that measures the effect of compound treatment on P. falciparum D10 asexual stage transition between late schizont and ring stages ([Wilson et al., 2013]). In this assay, highly synchronised mature schizont-stage parasites were incubated with pranlukast and selected analogues at 50 and 100 μM and the transition to newly invaded ring stage parasites was quantified by flow cytometry. In parallel, the rate of schizont rupture and merozoite release was quantified to assess whether any reduction in newly invaded ring stages was due to a block affecting merozoite release or development. […] Neither DMSO (at the maximal concentration used for the drug treatments of 0.1%) or a non-invasion inhibitory mAb control caused a reduction in merozoite invasion. […] […].

[6] = AlphaScreen TruHits counterscreen assay; conditions: for % Inhibition Counter: TruHits counterscreen, single point, 10 μM in duplicate; for IC50: 11 pt titration, flag (POORFIT given as ~), read-out: Basigin_IC50_Counter_TruHits IC50
Method: The counterscreen assay was conducted using AlphaScreen TruHits kit (PerkinElmer). Biotinylated acceptor beads and Streptavidin donor beads were both diluted in assay buffer (final concentration of 10 μg/mL). Using the Combi-multidrop, 10 μL of each bead solution (20 μg/mL prepared in assay buffer) was added to every well of the assay plate under subdued lighting. Compound addition and assay readout was performed as described above.

[7] = Basigin_IC50_Counter_Alpha counterscreen; conditions: 11 pt titration; flag (POORFIT given as ~)
Description: Supplement mmc3.xlsx, sheet "Report" | column: Basigin_IC50_Counter_Alpha IC50

[8] = Plasmodium falciparum, 3D7, 72 h, LDH activity, 10-point dilution series, 72 h, read-out: P. falciparum 3D7 EC50
[9] = 50 and 100 μM, 6 h, flow cytometry
[10] = LDH activity, 10-point dilution series, 72 h, read-out: P. falciparum 3D7 EC50
[11] = 11 pt titration of the 45 hits, flag (POORFIT given as ~), two lines per compound, read-out: Basigin_IC50_Assay_Alpha IC50

| Compound | EC50 [1, 8] [µM] | IC50 [2] [µM] | EC50 [3] [µM] | EC50 [4] [µM] | free merozoite numbers [5, 9] | merozoite invasion (newly invaded early ring stages) [5, 9] | other results |
| --- | --- | --- | --- | --- | --- | --- | --- |
| C[C@H]1CCC/C=C/[C@@H]2C[C@H](O)C[C@H]2[C@H](O)/C=C/C(=O)O1 [Brefeldin A, reference compound] | 3.5 |  |  |  |  |  |  |
| CCN(CC)CCCC(C)Nc1ccnc2cc(Cl)ccc12 (stereo not shown) [Chloroquine, reference compound] |  |  |  |  |  |  | EC50 ([1]; Plasmodium falciparum, 3D7, 72 h, read-out: P. falciparum 3D7 EC50, control, LDH activity, 72 h): 0.018 µM |
| CCOC(=O)c1cc(=O)c2cccc(NC(=O)c3ccc(OCCCc4ccccc4)cc3)c2o1 [Compound 13, Ethyl 4-oxo-8-(4-(3-phenylpropoxy)benzamido)-4H-chromene-2-carboxylate] | > 50 | > 50 | > 50 | > 50 | no reduction in free merozoite numbers | minimal inhibition of merozoite invasion |  |
| O=C(Nc1cccc2c(=O)cc(C(=O)O)oc12)c1ccc(OCCc2ccccc2)cc1 [Compound 16, 4-Oxo-8-(4-phenethoxybenzamido)-4H-chromene-2-carboxylic acid] | 40 | 40 | 6.7 | > 50 |  | substantial reduction in the numbers of merozoites that had invaded and formed early ring stages | EC50 [1, 10]: 37 µM; fold more active against the D10 strain than the 3D7 strain ([3]; EC50 D10 vs 3D7): 5 fold; free merozoite numbers ([5]; lowest concentration tested (50 μM)): minimal loss in free merozoite numbers |
| O=C(Nc1cccc2c(=O)cc(C(=O)O)oc12)c1ccc(OCCCc2ccccc2)cc1 [Compound 17, 4-Oxo-8-(4-(3-phenylpropoxy)benzamido)-4H-chromene-2-carboxylic acid] | 15 | 24 | 19 | > 50 | no reduction in free merozoite numbers | minimal inhibition of merozoite invasion |  |
| O=C(Nc1cccc2c(=O)cc(C(=O)O)oc12)c1ccc(OCCCCc2ccccc2)cc1 [Compound 18, 4-Oxo-8-(4-(4-phenylbutoxy)benzamido)-4H-chromene-2-carboxylic acid] | > 50 | 21 | 42 | > 50 | similarly reduced numbers of free merozoites | reduction in numbers of merozoites that had invaded and formed early ring stages |  |
| COc1ccc(C(=O)Nc2cccc3c(=O)cc(C(=O)O)oc23)cc1 [Compound 21, 8-(4-Methoxybenzamido)-4-oxo-4H-chromene-2-carboxylic acid] | > 50 | > 50 |  | > 50 |  |  | Rh5 inhibitory activity in the AlphaScreen assay [2]: No activity |
| COc1ccc(C(=O)Nc2cccc3c(=O)cc(-c4nn[nH]n4)oc23)cc1 [Compound 24, 4-Methoxy-N-(4-oxo-2-(2H-tetrazol-5-yl)-4H-chromen-8-yl)benzamide] | 25 | > 50 |  | > 50 |  |  |  |
| O=C(Nc1cccc2c(=O)cc(-c3nn[nH]n3)oc12)c1ccc(OCCCc2ccccc2)cc1 [Compound 25, N-(4-Oxo-2-(2H-tetrazol-5-yl)-4H-chromen-8-yl)-4-(3-phenylpropoxy)benzamide] | 7 | 20 |  | > 50 |  |  | EC50 [1, 10]: 7.3 µM |
| CCCc1c(OCC(O)COc2ccc3c(=O)cc(C(=O)O)oc3c2CCC)ccc(C(C)=O)c1O (stereo not shown) [FPL 55712, reference compound] |  |  |  | > 50 |  |  | EC50 ([1]; Plasmodium falciparum, 3D7, 72 h, read-out: P. falciparum 3D7 EC50): > 50 µM |
| O=C(O)c1ccccc1Nc1cccc(OCc2ccc3ccccc3n2)c1 [SR2540, reference compound] |  | > 50 | 6.1 | > 50 | similarly reduced numbers of free merozoites | reduction in numbers of merozoites that had invaded and formed early ring stages | increase in unruptured schizonts ([5]; at the concentrations tested (50 and 100 μM)): > 40% |
| Oc1c(Cl)cc(Cl)c(Cl)c1Cc1c(O)c(Cl)cc(Cl)c1Cl [WEHI-0104268, Hexachlorophene, reference compound] |  |  |  |  |  |  | % Inhibition Counter [6]: 28.8475% |
| CCCN1CCc2cccc3c2[C@H]1Cc1ccc(O)c(O)c1-3 [WEHI-1215034] |  |  |  |  |  |  | IC50 [2, 11]: 1.56 µM and 2.23 µM; IC50 [6]: > 25 µM; IC50 [7]: 20 µM and 22.9 µM |
| CN1CCc2cc(O)cc3c2[C@H]1Cc1ccc(O)c(O)c1-3 [WEHI-1215043] |  |  |  |  |  |  | IC50 [2, 11]: 4.02 µM and 4.98 µM; IC50 [6]: > 25 µM; IC50 [7]: > 25 µM |
| O.c1cnc2c(c1)ccc1cccnc12 [WEHI-1215482, 1,10-Phenanthroline monohydrate, reference compound] |  |  |  |  |  |  | inhibition at 10 µM ([2]; read-out: % Inhibition Confirmation): 99.6%; % Inhibition Counter [6]: 2.663% |
| O=C([O-])c1ccccc1-c1c2cc(Br)c(=O)cc-2oc2[c]([Hg+])c([O-])c(Br)cc12.[Na+].[Na+].[OH-] [WEHI-1216497, Merbromin, reference compound] |  |  |  |  |  |  | % Inhibition Confirmation ([2]; confirmation, single point, 10 μM in duplicate): 100.385%; % Inhibition Pilot ([2]; primary screen, 20 μM): 100.87%; % Inhibition Counter [6]: 29.2235% |
| CCC(CC)(CC(=O)Nc1cccc(/C=C/c2nc(C3CCC3)cs2)c1)C(=O)O [cinalukast, reference compound] |  | > 50 | 32 | > 50 | similarly reduced numbers of free merozoites | reduction in numbers of merozoites that had invaded and formed early ring stages | Rh5 inhibitory activity in the AlphaScreen assay [2]: did not show Rh5 inhibitory activity |
| COc1cc(C(=O)NS(=O)(=O)c2ccccc2C)ccc1Cc1cn(C)c2ccc(NC(=O)OC3CCCC3)cc12 [zafirlukast, reference compound] | 6 | 17 |  | > 50 |  |  | Rh5 inhibitory activity in the AlphaScreen assay [2]: possess inhibitory activity; EC50 [1, 10]: 5.9 µM |
| cDPCP [WEHI-1215640, reference compound] |  |  |  |  |  |  | % Inhibition Counter [6]: 2.1075% |
| heparin |  |  |  |  | not free merozoites | reduction in the number of early rings stage parasites |  |
